Laboratory results from patent US4801697A, “Physiologically active substance TPI and production thereof” (Toyo Jozo Kabushiki Kaisha, priority 1985, dated 1989).
≈ marks a conversion by molar mass, not a printed value.

Columns and labels:
bovine heart PDE = bovine heart PDE inhibitory action (5'-AMP produced from c-AMP measured by HPLC); format: biochemical; details: 0.4 mM c-AMP, 30 μg protein PDE, pH 7.5, 30° C., 30 minutes
Description: 40 mM Tris-HCl buffer solution (pH 7.5), 2 mM magnesium chloride, 0.4 mM c-AMP, PDE (30 μg protein, Boehringer Mannheim Co.) and TPI are combined to form a reaction mixture (1.0 ml) and the same is incubated at 30° C. for 30 minutes.

mice = test: acute toxicity, intraperitoneal injection in mice; format: in vivo; details: 100 mg/kg intraperitoneally
Solubility = format: physicochemical; details: for Solubility: insoluble: hexane, benzene and petroleum ether; for Solubility: soluble: lower alcohol such as methanol, ethanol and butanol, ethyl acetate, dimethylsulfoxide, aqueous alkali

Cn1c(=O)c2[nH]cnc2n(C)c1=O [Teophyllin, theophyllin, reference compound]
IC50 concentration (bovine heart PDE): 470 µg/mL (≈ 2610 µM)

CCCCCCCc1cc(OC(=O)c2c(CCCCCCC)cc(O)cc2O[C@@H]2O[C@H](CO)[C@@H](O)[C@H](O)[C@H]2O)cc(O)c1C(=O)O [TPI-1]
deaths (mice): No deaths occurred | IC50 concentration (bovine heart PDE): 2.8 µg/mL (≈ 4.32 µM) | Solubility: insoluble (Solubility): Insoluble | Solubility: soluble (Solubility): Soluble

COC(=O)C1=C(C)NC(C)=C(C(=O)OCCN(C)Cc2ccccc2)C1c1cccc([N+](=O)[O-])c1 (stereo not shown) [Nicardipine, nicardipine, reference compound]
IC50 concentration (bovine heart PDE): 6.0 µg/mL (≈ 12.5 µM)

CCCCCCCc1cc(OC(=O)c2c(CCCCCCC)cc(O)cc2O[C@@H]2O[C@H](COC(C)=O)[C@H](O)[C@H](O)[C@H]2O)cc(O)c1C(=O)O [TPI-4]
IC50 concentration (bovine heart PDE): 3.5 µg/mL (≈ 5.07 µM) | Solubility: insoluble (Solubility): Insoluble | Solubility: soluble (Solubility): Soluble

COc1ccc(Cc2nccc3cc(OC)c(OC)cc23)cc1OC [Papaverine, papaverine, reference compound]
IC50 concentration (bovine heart PDE): 25 µg/mL (≈ 73.7 µM)

CCCCCCCc1cc(OC(=O)c2c(O)cc(O)cc2CCCCCCC)cc(O)c1C(=O)O [TPI-5]
IC50 concentration (bovine heart PDE): 2.3 µg/mL (≈ 4.73 µM) | Solubility: insoluble (Solubility): Insoluble | Solubility: soluble (Solubility; chloroform): Soluble

CCCCCCCc1cc(OC(=O)c2c(CCCCCCC)cc(O)cc2O[C@@H]2O[C@H](COC(C)=O)[C@@H](O)[C@H](O)[C@H]2O)cc(O)c1C(=O)O [TPI-3]
IC50 concentration (bovine heart PDE): 2.8 µg/mL (≈ 4.05 µM) | Solubility: insoluble (Solubility): Insoluble | Solubility: soluble (Solubility): Soluble

CCCCCCCc1cc(OC(=O)c2c(CCCCCCC)cc(O)cc2O[C@@H]2O[C@H](CO)[C@H](O)[C@H](O)[C@H]2O)cc(O)c1C(=O)O [TPI-2]
IC50 concentration (bovine heart PDE): 5.4 µg/mL (≈ 8.32 µM) | Solubility: insoluble (Solubility): Insoluble | Solubility: soluble (Solubility): Soluble
